Data reported in patent publication US9700632B2, “Dendrimers, conjugates and methods thereof” (Centre for BioSeparation Technology—VIT, priority 2012, dated 2017).
Converted amounts (≈) assume the structure as drawn.

Legend:
PC3 cells = assay: MTT cytotoxicity assay of lupeol and dendrimer-lupeol conjugates; type: cell-based; conditions: Homo sapiens, PC-3, 48 h, read-out: percentage inhibition (cytotoxic effect, MTT)
Description: Human prostate cancer cells (PC-3 cells) are obtained from NCCS, Pune, India. The cells are grown in RPMI 1640 medium supplemented with 10% of bovine fetal serum and antibiotics (100 IU of penicillin/[…] of streptomycin). The cells are maintained in a 25 cm^2 T-flask and incubated at 37° C. under 5% CO2 in a humidified atmosphere. The cell viability is measured by staining the cells with trypan blue and counted in a haemocytometer under a light microscope.
The assay is performed in triplicates.
The cytotoxicity is quantitatively estimated by a non-radioactive, colorimetric assay system using a tetrazolium salt, 3-[4,5-dimethylthiazol-2-yl]-2,5-diphenil-tetrazolium bromide (MTT).
The cytotoxic effect of lupeol and the dendrimer lupeol conjugate is determined using PC3 cells. […] Doxorubicin is used as positive control for each experiment. […] This clearly showcases that the increase in cytotoxic activity of the dendrimer-lupeol conjugate is not due to the dendrimer or lupeol alone but because of the conjugate of dendrimer and lupeol.

[1] = system: PC3 prostate cancer cells; assay: cells; conditions: Homo sapiens, PC-3, 48 h, read-out: IC50 PC3
[2] = system: HCT-15 human colon cancer cells; assay: cells; conditions: HCT-15, 48 h, read-out: IC50 HCT-15
Description: Cells are incubated for 48 hr with different equivalent doxorubicin concentrations and IC50 values in terms of doxorubicin were calculated using MTT assay.

| IC50 [1] | IC50 [2] | Structure (SMILES) | inhibition at 10 µg/mL (PC3 cells) |
| --- | --- | --- | --- |
|  |  | C=C(C)[C@@H]1CC[C@]2(C)CC[C@]3(C)[C@H](CC[C@@H]4[C@@]5(C)CC[C@H](O)C(C)(C)[C@@H]5CC[C@]43C)[C@@H]12 [free lupeol, lupeol] | 7.74% |
| 5.13 µg/mL (≈ 9.45 µM) | 4.77 µg/mL (≈ 8.78 µM) | COc1cccc2c1C(=O)c1c(O)c3c(c(O)c1C2=O)C[C@@](O)(C(=O)CO)C[C@@H]3O[C@H]1C[C@H](N)[C@H](O)[C@H](C)O1 [Free doxorubicin, doxorubicin] |  |
